Article PMC8617031, “Development of a BCL-xL and BCL-2 dual degrader with improved anti-leukemic activity,” (Nature Communications, 2021)
Where “and” joins values, the source holds several entries; their conditions need not be identical. Equal entries are not always repeated. Where two headings read alike, the source gives them in different places.

Tests used:
[1] = biological target: T1, His-tagged BCL-2 (Homo sapiens, UniProt P10415); assay: AlphaScreen competitive binary binding, BCL-2 (biotin-BIM peptide); settings: for Alpha signal normalised to Maximum/Minimum (inhibition): in % (unit assumed)
T1 construct: purchased Sigma-Aldrich SRP0186
T1 sequence (P10415 whole entry): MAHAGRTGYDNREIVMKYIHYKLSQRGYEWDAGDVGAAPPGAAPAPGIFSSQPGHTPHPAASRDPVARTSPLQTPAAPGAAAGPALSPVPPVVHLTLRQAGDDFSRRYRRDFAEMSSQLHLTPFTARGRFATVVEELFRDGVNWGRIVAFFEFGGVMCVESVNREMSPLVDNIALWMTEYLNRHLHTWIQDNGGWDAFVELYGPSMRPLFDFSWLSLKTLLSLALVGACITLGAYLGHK
Method in brief: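 His-tagged BCL-xL (0.5 nM) with 2 nM biotin-BAD peptide, or BCL-2 (1 nM) with 10 nM biotin-BIM peptide, was incubated 2 h with serially diluted compound in HEPES pH 7.5 buffer containing NaCl, BSA and Tween-80. AlphaScreen signal came from His-acceptor and streptavidin-donor beads at 20 µg/ml each. Ki was fitted by competitive binding using measured Kd per protein–peptide pair.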

[2] = system: 293T cells; assay: Viability (MTS) of 293T cells; format: cell-based, human; settings: for 293T cell viability, MTS absorbance 490 as percent of control, mean of three wells, left block of Plate 29: mean of 3 wells, Plate 29 normalised with blank 0.332667 and control 0.923167 of Plate 30; for 293T cell viability, MTS absorbance 490 as percent of untreated control, single replicate well: normalised to own plate
Procedure: (§1) Suspension cells were treated 30 min after seeding, whereas adherent cells were allowed to adhere overnight and were then treated. Compound treatments were prepared in complete cell culture medium and 100 µl of 2× treatment-containing medium were added to each well. Complete cell culture medium without treatment was added in control wells, and wells containing medium without cells served as background. The outer wells of the 96-well plate were not used for treatment and were filled with 250 µl of PBS to reduce evaporation of medium from inner wells. Each compound and/or combination was tested at nine different concentrations with three replicates. The cell viability was measured after 72 h by tetrazolium-based MTS assay. MTS reagent (2 mg ml^–1 stock; cat. no. G1111, Promega) was freshly supplemented with phenazine methosulfate (PMS, 0.92 mg ml^–1 stock, cat. no. P9625, Sigma-Aldrich) in 20:1 ratio, and 20 µl of this mixture was added to each control and treatment well. The cells were incubated for 4 h at 37 °C and 5% CO2, and then the absorbance was recorded at 490 nm using Biotek’s Synergy Neo2 multimode plate reader (Biotek). The average absorbance value of background wells was subtracted from absorbance value of each control and treatment well, and percent cell viability ((At/A0) × 100)) was determined in each treatment well, where At is the absorbance value of the treatment well and A0 is the average absorbance value of control wells after background subtraction. The data were expressed as average percentage cell viability and fitted in non-linear regression curves using GraphPad Prism 7 (GraphPad Software, La Jolla, CA, USA).

[3] = system: Hela cells; assay: Viability (MTS) of Hela cells; format: cell-based, human; settings: in % (unit assumed)
Procedure: as §1

For `Cc1ncsc1-c1ccc([C@H](C)NC(=O)[C@@H]2C[C@@H](O)CN2C(=O)[C@@H](NC(=O)CCCCCC(=O)N2CCN(CC[C@H](CSc3ccccc3)Nc3ccc(S(=O)(=O)NC(=O)c4ccc(N5CCN(CC6=C(c7ccc(Cl)cc7)CCC(C)(C)C6)CC5)cc4)cc3S(=O)(=O)C(F)(F)F)CC2)C(C)(C)C)cc1` [DT2216], the “Alpha signal normalised to Maximum/Minimum (inhibition)” value ([1]; BCL-2 Rep-1, 0.000305176 uM, 0.000305176 µM) was 11.9513, the inhibition at 0.000305176 µM ([1]; BCL-2 Rep-1, 0.000305176 uM, read-out: Alpha signal normalised to Maximum/Minimum (inhibition)) was 15.4% and the “Alpha signal normalised to Maximum/Minimum (inhibition)” value ([1]; BCL-2 Rep-1, 0.00488281 uM, 0.00488281 µM) was 42.8592. The inhibition at 0.00488281 µM ([1]; BCL-2 Rep-1, 0.00488281 uM, read-out: Alpha signal normalised to Maximum/Minimum (inhibition)) was 43%, the “Alpha signal normalised to Maximum/Minimum (inhibition)” value ([1]; BCL-2 Rep-1, 0.0195312 uM, 0.0195312 µM) was 72.1054 and the inhibition at 0.0195312 µM ([1]; BCL-2 Rep-1, 0.0195312 uM, read-out: Alpha signal normalised to Maximum/Minimum (inhibition)) was 69.3%. For the same compound, the “Alpha signal normalised to Maximum/Minimum (inhibition)” value ([1]; BCL-2 Rep-1, 0.078125 uM, 0.078125 µM) was 96.9363, the inhibition at 0.078125 µM ([1]; BCL-2 Rep-1, 0.078125 uM, read-out: Alpha signal normalised to Maximum/Minimum (inhibition)) was 96.6% and the “Alpha signal normalised to Maximum/Minimum (inhibition)” value ([1]; BCL-2 Rep-1, 0.3125 uM, 0.3125 µM) was 99.419. For the same compound, the inhibition at 0.3125 µM ([1]; BCL-2 Rep-1, 0.3125 uM, read-out: Alpha signal normalised to Maximum/Minimum (inhibition)) was 100%, the “Alpha signal normalised to Maximum/Minimum (inhibition)” value ([1]; BCL-2 Rep-1, 1.25 uM, 1.25 µM) was 99.6178 and the inhibition at 1.25 µM ([1]; BCL-2 Rep-1, 1.25 uM, read-out: Alpha signal normalised to Maximum/Minimum (inhibition)) was 99.6%. For the same compound, the “Alpha signal normalised to Maximum/Minimum (inhibition)” value ([1]; BCL-2 Rep-1, 5 uM, 5 µM) was 99.391, the inhibition at 5 µM ([1]; BCL-2 Rep-1, 5 uM, read-out: Alpha signal normalised to Maximum/Minimum (inhibition)) was 100% and the “Alpha signal (raw counts)” value ([1]; BCL-2 Rep-2, 0.00488281 uM) was 457290 and 444842. The “Alpha signal normalised to Maximum/Minimum (inhibition)” value ([1]; BCL-2 Rep-2, 0.0195312 uM, 0.0195312 µM) was 73.927, the inhibition at 0.0195312 µM ([1]; BCL-2 Rep-2, 0.0195312 uM, read-out: Alpha signal normalised to Maximum/Minimum (inhibition)) was 72.6% and the “Alpha signal normalised to Maximum/Minimum (inhibition)” value ([1]; BCL-2 Rep-2, 0.078125 uM, 0.078125 µM) was 98.4863. The inhibition at 0.078125 µM ([1]; BCL-2 Rep-2, 0.078125 uM, read-out: Alpha signal normalised to Maximum/Minimum (inhibition)) was 98.1%, the “Alpha signal normalised to Maximum/Minimum (inhibition)” value ([1]; BCL-2 Rep-2, 0.3125 uM, 0.3125 µM) was 98.9063 and the inhibition at 0.3125 µM ([1]; BCL-2 Rep-2, 0.3125 uM, read-out: Alpha signal normalised to Maximum/Minimum (inhibition)) was 98.5%. The “Alpha signal normalised to Maximum/Minimum (inhibition)” value ([1]; BCL-2 Rep-2, 1.25 uM, 1.25 µM) was 100.524, the inhibition at 1.25 µM ([1]; BCL-2 Rep-2, 1.25 uM, read-out: Alpha signal normalised to Maximum/Minimum (inhibition)) was 101% and the “Alpha signal normalised to Maximum/Minimum (inhibition)” value ([1]; BCL-2 Rep-2, 5 uM, 5 µM) was 100.141. The inhibition at 5 µM ([1]; BCL-2 Rep-2, 5 uM, read-out: Alpha signal normalised to Maximum/Minimum (inhibition)) was 99.9%, the “Alpha signal (raw counts)” value ([1]; BCL-2 Rep-2, plate row B, 5 uM) was 15606 and 13933 and the “Alpha signal (raw counts)” value ([1]; BCL-2 Rep-2, plate row C, 1.25 uM) was 9913 and 10759. The “Alpha signal (raw counts)” value ([1]; BCL-2 Rep-2, plate row D, 0.3125 uM) was 27814 and 24179, the “Alpha signal (raw counts)” value ([1]; BCL-2 Rep-2, plate row E, 0.078125 uM) was 30701 and 27663 and the “Alpha signal (raw counts)” value ([1]; BCL-2 Rep-2, plate row F, 0.0195312 uM) was 242422 and 231401. The “Alpha signal (raw counts)” value ([1]; BCL-2 Rep-2, plate row H, 0.0012207 uM) was 765240 and 763074, the “Alpha signal (raw counts)” value ([1]; BCL-2 Rep-2, plate row I, 0.000305176 uM) was 762866 and 759346 and the “Alpha signal (raw counts)” value ([1]; BCL-2 Rep-2, plate row J, 7.62939e-5 uM) was 726537 and 792609. The “Alpha signal (raw counts)” value ([1]; BCL-2 Rep-2, plate row K, 1.90735e-5 uM) was 756626 and 814053, the “293T cell viability, MTS absorbance 490 as percent of control, mean of three wells, left block of Plate 29” value ([2]; 0.00137174 uM) was 100.343 and the “293T cell viability, MTS absorbance 490 as percent of control, single replicate well, left block of Plate 29” value ([2]; 0.00137174 uM, Plate 29 normalised with blank 0.332667 and control 0.923167 of Plate 30, 0.00137174 µM) was 99.4764 and 95.6851. For the same compound, the “293T cell viability, MTS absorbance 490 as percent of untreated control, single replicate well” value ([2]; 0.00137174 uM) was 104.404 and 98.1429 and 94.4287, the “293T cell viability, MTS absorbance 490 as percent of control, mean of three wells, left block of Plate 29” value ([2]; 0.00411523 uM) was 98.6099 and the “293T cell viability, MTS absorbance 490 as percent of control, single replicate well, left block of Plate 29” value ([2]; 0.00411523 uM, Plate 29 normalised with blank 0.332667 and control 0.923167 of Plate 30, 0.00411523 µM) was 96.0101 and 96.1184. The “293T cell viability, MTS absorbance 490 as percent of untreated control, single replicate well” value ([2]; 0.00411523 uM) was 102.282 and 94.7471 and 94.8532, the “293T cell viability, MTS absorbance 490 as percent of control, mean of three wells, left block of Plate 29” value ([2]; 0.037037 uM) was 101.101 and the “293T cell viability, MTS absorbance 490 as percent of control, single replicate well, left block of Plate 29” value ([2]; 0.037037 uM, Plate 29 normalised with blank 0.332667 and control 0.923167 of Plate 30, 0.037037 µM) was 93.0854 and 104.134. The “293T cell viability, MTS absorbance 490 as percent of untreated control, single replicate well” value ([2]; 0.037037 uM) was 91.8819 and 102.706, the “293T cell viability, MTS absorbance 490 as percent of control, mean of three wells, left block of Plate 29” value ([2]; 0.111111 uM) was 100.235 and the “293T cell viability, MTS absorbance 490 as percent of control, single replicate well, left block of Plate 29” value ([2]; 0.111111 uM, Plate 29 normalised with blank 0.332667 and control 0.923167 of Plate 30, 0.111111 µM) was 95.1435 and 95.2519. For the same compound, the “293T cell viability, MTS absorbance 490 as percent of untreated control, single replicate well” value ([2]; 0.111111 uM) was 93.8981 and 94.0042, the “293T cell viability, MTS absorbance 490 as percent of control, mean of three wells, left block of Plate 29” value ([2]; 0.333333 uM) was 99.5125 and the “293T cell viability, MTS absorbance 490 as percent of control, single replicate well, left block of Plate 29” value ([2]; 0.333333 uM, Plate 29 normalised with blank 0.332667 and control 0.923167 of Plate 30, 0.333333 µM) was 112.042 and 98.7182 and 87.7776. The “293T cell viability, MTS absorbance 490 as percent of untreated control, single replicate well” value ([2]; 0.333333 uM) was 110.453 and 97.4001 and 86.682, the “293T cell viability, MTS absorbance 490 as percent of control, mean of three wells, left block of Plate 29” value ([2]; 1 uM) was 99.007 and the “293T cell viability, MTS absorbance 490 as percent of control, single replicate well, left block of Plate 29” value ([2]; 1 uM, Plate 29 normalised with blank 0.332667 and control 0.923167 of Plate 30, 1 µM) was 110.742 and 102.834 and 83.4447. For the same compound, the “293T cell viability, MTS absorbance 490 as percent of untreated control, single replicate well” value ([2]; 1 uM) was 109.179 and 101.433 and 82.4372, the “293T cell viability, MTS absorbance 490 as percent of control, mean of three wells, left block of Plate 29” value ([2]; 3 uM) was 87.4526 and the “293T cell viability, MTS absorbance 490 as percent of control, single replicate well, left block of Plate 29” value ([2]; 3 uM, Plate 29 normalised with blank 0.332667 and control 0.923167 of Plate 30, 3 µM) was 93.7353 and 78.0285. The “293T cell viability, MTS absorbance 490 as percent of untreated control, single replicate well” value ([2]; 3 uM) was 92.5186 and 77.1312, the “cell viability normalised to control wells (single replicate)” value (“cell viability normalised” for short) ([3]; MTS absorbance 490, Conc 0.00137174 uM) was 91.7776 and the “cell viability normalised” value ([3]; MTS absorbance 490, Conc 0.00411523 uM) was 92.3987 and 92.7536. For the same compound, the “cell viability normalised” value ([3]; MTS absorbance 490, Conc 0.037037 uM) was 98.4324 and 86.0988.
